Measured values: patent US20210137935A1, “CORTICOTROPIN RELEASING FACTOR RECEPTOR ANTAGONISTS” (Spruce Biosciences, Inc., priority 2017, published 2021)
≈ marks a conversion by molar mass, not a printed value.

Assays:
[1] = Phase 2 study in adults with classic CAH: safety; assay type: in vivo, human; conditions: patients with CAH, 5-fold range of doses
Excerpt: (§1) Cohort A of the Phase 2 Study includes a 6-week, multiple-dose, dose escalation study of Compound 1 for the treatment of adults with classic CAH. After screening, eligible patients will be enrolled into a 6-week treatment period followed by a 4-week washout/safety follow-up period.
This cohort will be conducted in approximately 9 patients, who will receive Compound 1 daily for up to 6 weeks. Compound 1 will be administered as an oral daily dose. Patients will undergo titration of Compound 1 through three escalating dosage strengths at 2-week intervals. Patients will have overnight PK/PD assessments performed at baseline, which include an pre-dose overnight assessment and a post-dose overnight assessment for PK/PD following administration of the first dose. At the end of each 2-week dosing period, patients will return for single overnight visits for steady-state PK/PD assessments. A follow-up outpatient visit will occur 30 days after their last dose. Upon completion of the initial cohort (Cohort A), the study will proceed to a multiple ascending dose (MAD) design with up to 3 sequential cohorts (Cohorts B, C, and D) to further evaluate the safety, PK, and PD of various SPR001 dosing regimens and to identify an optimal dose regimen. […]
• 1. […] To assess the efficacy of Compound 1 in subjects with classic CAH as measured by percent and absolute change in 17-OHP compared to baseline. […]

ACTH = test: Phase 2 study in adults with classic CAH: ACTH; assay type: in vivo, human; conditions: patients with classic CAH
Excerpt: as §1
(§2) This cohort will be conducted in approximately 9 patients, who will receive Compound 1 daily for up to 6 weeks. Compound 1 will be administered as an oral daily dose. Patients will undergo titration of Compound 1 through three escalating dosage strengths at 2-week intervals. Patients will have overnight PK/PD assessments performed at baseline, which include an pre-dose overnight assessment and a post-dose overnight assessment for PK/PD following administration of the first dose. At the end of each 2-week dosing period, patients will return for single overnight visits for steady-state PK/PD assessments. A follow-up outpatient visit will occur 30 days after their last dose. Upon completion of the initial cohort (Cohort A), the study will proceed to a multiple ascending dose (MAD) design with up to 3 sequential cohorts (Cohorts B, C, and D) to further evaluate the safety, PK, and PD of various SPR001 dosing regimens and to identify an optimal dose regimen. Each cohort will undergo a 2-week run-in period, a 2-week treatment period, and a 30-day washout and safety follow-up period. During the run-in period, which will occur during screening, subjects will document in a paper diary each dose of glucocorticoid medication taken, the time of each meal, and the time they went to bed and woke up each day, to ensure compliance with background glucocorticoid regimens and the stability of their daily routine.
(§3) • 3. To explore the dose(s) of Compound 1 that cause pharmacodynamics changes in plasma concentrations of ACTH, androstenedione, and testosterone, as measured by the absolute and percent change from baseline by dose. • 4. To determine pharmacokinetics of Compound 1 in subjects with CAH. • 5. To explore potential relationships between pharmacodynamics and pharmacokinetics. […]

[2] = Solubility in different aqueous media (24 hour at room temperature); assay type: physicochemical
Androstenedione = test: Phase 2 study in adults with classic CAH: Androstenedione; assay type: in vivo, human; conditions: patients with classic CAH
Excerpt: as §1, §2, §3

[3] = Study 1: single-escalating oral dose pharmacokinetics in healthy adult subjects; assay type: in vivo, human; conditions: for Cmax / AUC0-tlast / AUC0-∞ / CL/F / t1/2: geometric mean
Experimental: (§4) Study 1 was the first-in-human study that investigated the safety, tolerability, and PK of single-escalating doses of Compound 1, given orally, to healthy adult subjects. […] The data from this study were used for the selection of doses for Study 2.
In Study 1, Compound 1 was administered to healthy adult subjects as a single PO dose of 2, 10, 50, 150, 400, or 800 mg in the fed state and 150 mg in the fasted state. Absorption occurred moderately late, achieving peak Cmax between 4 to 6 hours following dosing in the fed state.
When Compound 1 was given in the fed state, median time to reach maximum plasma concentration (Tmax) occurred between 4 and 6 hours.
As part of this single-dose escalation study, a food effect PK investigation was performed to examine Compound 1 exposures in both the fed and fasted states at the 150-mg dose level. A total of 6 subjects were administered 150 mg Compound 1 in each of these 2 dosing groups. Of these 6 subjects, 4 subjects received Compound 1 at the same dose in both fed and fasted states. […] Table 6 provides a summary of the PK parameters at the 150-mg dose level under both fed and fasted state conditions.
PK parameters AUC0-∞ and Cmax were analyzed separately for dose proportionality for Compound 1 from 50 to 800 mg when administered in the fed state. […] Dose proportionality across administered doses in the fed state could not be concluded on the basis of AUC0-∞ or Cmax.

[4] = Phase 1 safety and tolerability (Study 1 and Study 2); assay type: in vivo, human; conditions: healthy subjects
Excerpt: as §4
(§5) The 2-part multiple-dose study, Study 2, determined the safety and tolerability of repeated daily doses of Compound 1 and investigated the effects on biomarkers of relevance for the treatment of alcohol dependence.
The safety of Compound 1 was evaluated in 2 Phase 1 studies in healthy adult volunteers (Study 1 and Study 2). In both studies, adverse events (AEs), clinical laboratory tests, vital signs (supine blood pressure and pulse rate), and electrocardiograms (ECGs) were evaluated. Overall, in Study 1, Compound 1 was well-tolerated.

[5] = Study 2 Part A: multiple-dose (14 days) pharmacokinetics in healthy adult volunteers; assay type: in vivo, human; conditions: for Cmax: fed; for Effective t1/2: half-life calculated by accumulation ratio; for Tmax: median; for WT-norm Claa/F: weight normalized
Experimental: as §5
PK were also evaluated in the multiple-dose, dose-escalation study, Study 2. In Part A of the study, subjects were divided into 3 cohorts and received 50, 150, or 200 mg Compound 1 or placebo for 14 consecutive days (at least 6 subjects received Compound 1 and 2 subjects received placebo in each cohort). […] All dosing occurred in the fed state. An assessment of diurnal cortisol levels, plus when under conditions of glucose clamp, were also carried out both prior to and during the dosing period.
Consistent with the single-dose study (Study 1), concentrations appeared to decline in a bi-exponential manner, characterized by a rapid decrease within the first 24 hours. […] The Tmax appeared to be consistent across doses. Overall half-lives, weight normalized CL/F and V/F were consistent for 150 and 200 mg. However, the values for these latter 2 parameters were almost doubled at the 50-mg dose level. Variability (CV %) for apparent clearance and volume of distribution were large and not reduced with weight-normalization.
Table 8 presents the results of the dose proportionality assessment for the AUC0-24 and Cmax over the tested dose range.

17-OHP = test: Phase 2 study in adults with classic CAH: 17-OHP; assay type: in vivo, human; conditions: patients with classic CAH
Excerpt: as §1, §2
• 1. To evaluate the safety of Compound 1 in subjects with CAH. • 2. To assess the efficacy of Compound 1 in subjects with classic CAH as measured by percent and absolute change in 17-OHP compared to baseline.
This allows for steroid taper. […] 50% of subjects were within the guideline range (1200 ng/dL) after treatment.

[6] = single oral dose 150 mg, fasted
[7] = 50 mg daily, Day 14, geometric mean
[8] = 150 mg daily, Day 14, geometric mean
[9] = 200 mg daily, Day 14, geometric mean

Solubility Description ([2]; 0.001N HCl, equilibrium pH 3.36): Insoluble
Solubility Description ([2]; 0.01N HCl, equilibrium pH 2.06): Insoluble
Solubility Description ([2]; 0.1N HCl, equilibrium pH 1.06): insoluble
Solubility Description ([2]; 0.1N NaOH, equilibrium pH 11.65): Insoluble
Solubility Description ([2]; FaSSIF, equilibrium pH 5.16): insoluble
Solubility Description ([2]; FaSSIF, equilibrium pH 6.73): Insoluble
Solubility Description ([2]; SGF, equilibrium pH 2.25): Insoluble
Solubility Description ([2]; Water, equilibrium pH 7.78): insoluble
Solubility Description ([2]; pH 4.5 Acetate (USP), equilibrium pH 4.65): Insoluble
Solubility Description ([2]; pH 6.0 Phosphate (USP), equilibrium pH 6.08): Insoluble
Solubility Description ([2]; pH 7.5 Phosphate (USP), equilibrium pH 7.57): Insoluble
Solubility ([2]; pH 7.5 Phosphate (USP), equilibrium pH 7.57, n = 2, 24 hour, room temperature): 0.6 µg/mL (≈ 1.43 µM)
solubility at 24 h ([2]; water, thermodynamic from solid): < 2 µg/mL
increase of AUC0-∞ for every doubling of dose, relative to dose proportionality ([3]; 50 to 800 mg, fed state): 1.74 times
mean AUC0-∞, fed state relative to fasted state ([3]; 150-mg dose, fed vs fasted): approximately 3 fold
mean Cmax, fed state relative to fasted state ([3]; 150-mg dose, fed vs fasted): ~11 fold
half-life ([3]; human, plasma, single PO dose, fed and fasted state, overall range, read-out: half-life (t1/2), range): 11 to 101 h
Tmax ([3]; human, plasma, single oral dose 150 mg, fasted state, range, read-out: Tmax, range): 6 to 12 h
Tmax ([3]; single oral dose 2 mg, fed, median): 6.00 h
Cmax ([3]; single oral dose 2 mg, fed, plasma): 0.867 ng/mL
Tmax ([3]; single oral dose 10 mg, fed, median): 4.00 h
Cmax ([3]; single oral dose 10 mg, fed, plasma): 3.01 ng/mL
AUC0-tlast ([3]; single oral dose 50 mg, fed): 152 ng·h/mL
AUC0-∞ ([3]; single oral dose 50 mg, fed): 165 ng·h/mL
CL/F ([3]; single oral dose 50 mg, fed): 302 L/h
t1/2 ([3]; single oral dose 50 mg, fed): 31 h
Tmax ([3]; single oral dose 50 mg, fed, median): 4.00 h
Cmax ([3]; single oral dose 50 mg, fed, plasma): 19.5 ng/mL
AUC0-tlast [3, 6]: 288 ng·h/mL
AUC0-∞ [3, 6]: 331 ng·h/mL
CL/F [3, 6]: 454 L/h
t1/2 [3, 6]: 38.4 h
Tmax ([3]; single oral dose 150 mg, fasted, median): 10.05 h
Cmax ([3]; single oral dose 150 mg, fasted, plasma): 8.22 ng/mL
AUC0-tlast ([3]; single oral dose 150 mg, fed): 891 ng·h/mL
AUC0-∞ ([3]; single oral dose 150 mg, fed): 956 ng·h/mL
CL/F ([3]; single oral dose 150 mg, fed): 157 L/h
t1/2 ([3]; single oral dose 150 mg, fed): 29.2 h
Tmax ([3]; single oral dose 150 mg, fed, median): 4.00 h
Cmax ([3]; single oral dose 150 mg, fed, plasma): 93.4 ng/mL
AUC0-tlast ([3]; single oral dose 400 mg, fed): 2300 ng·h/mL
AUC0-∞ ([3]; single oral dose 400 mg, fed): 2580 ng·h/mL
CL/F ([3]; single oral dose 400 mg, fed): 155 L/h
t1/2 ([3]; single oral dose 400 mg, fed): 44.2 h
Tmax ([3]; single oral dose 400 mg, fed, median): 4.00 h
Cmax ([3]; single oral dose 400 mg, fed, plasma): 207 ng/mL
AUC0-tlast ([3]; single oral dose 800 mg, fed): 4390 ng·h/mL
AUC0-∞ ([3]; single oral dose 800 mg, fed): 4850 ng·h/mL
CL/F ([3]; single oral dose 800 mg, fed): 165 L/h
t1/2 ([3]; single oral dose 800 mg, fed): 41.9 h
Tmax ([3]; single oral dose 800 mg, fed, median): 6.00 h
Cmax ([3]; single oral dose 800 mg, fed, plasma): 382 ng/mL
Cmax [5, 7]: 50.3 ng/mL
AUC0-24 h [5, 7]: 273 ng·h/mL
AUC0-∞ [5, 7]: 980 ng·h/mL
CLaa/F [5, 7]: 183 L/h
Cavg [5, 7]: 11.4 ng/mL
Effective t1/2 [5, 7]: 37.7 h
Tmax ([5]; 50 mg daily, Day 14): 5.00 h
WT-norm Claa/F [5, 7]: 48 mL/min/kg
RA (accumulation ratio, Day 14 AUC0-24/Day 1 AUC0-24) ([5]; 50 mg daily, geometric mean): 2.80
Cmax ([5]; 50 mg, Day 1, geometric mean): 22.7 ng/mL
AUC0-24 h ([5]; 50 mg, Day 1, geometric mean): 97.6 ng·h/mL
Tmax ([5]; 50 mg, Day 1): 4.52 h
Cmax [5, 8]: 222 ng/mL
AUC0-24 h [5, 8]: 1480 ng·h/mL
AUC0-∞ [5, 8]: 4680 ng·h/mL
CLaa/F [5, 8]: 101 L/h
Cavg [5, 8]: 61.7 ng/mL
Effective t1/2 [5, 8]: 32.7 h
Tmax ([5]; 150 mg daily, Day 14): 5.00 h
WT-norm Claa/F [5, 8]: 23.7 mL/min/kg
RA (accumulation ratio, Day 14 AUC0-24/Day 1 AUC0-24) ([5]; 150 mg daily, geometric mean): 2.51
Cmax ([5]; 150 mg, Day 1, geometric mean): 127 ng/mL
AUC0-24 h ([5]; 150 mg, Day 1, geometric mean): 590 ng·h/mL
Tmax ([5]; 150 mg, Day 1): 5.00 h
Cmax [5, 9]: 314 ng/mL
AUC0-24 h [5, 9]: 2040 ng·h/mL
AUC0-∞ [5, 9]: 5660 ng·h/mL
CLaa/F [5, 9]: 98 L/h
Cavg [5, 9]: 85.0 ng/mL
Effective t1/2 [5, 9]: 52.0 h
Tmax ([5]; 200 mg daily, Day 14): 5.00 h
WT-norm Claa/F [5, 9]: 25 mL/min/kg
RA (accumulation ratio, Day 14 AUC0-24/Day 1 AUC0-24) ([5]; 200 mg daily, geometric mean): 3.65
Cmax ([5]; 200 mg, Day 1, geometric mean): 143 ng/mL
AUC0-24 h ([5]; 200 mg, Day 1, geometric mean): 559 ng·h/mL
Tmax ([5]; 200 mg, Day 1): 5.00 h
Vd/F at 14 days ([5]; human, plasma, oral, 50 mg daily, Day 14, geometric mean, read-out: Vz/F): 33500 L
Compound: CCC(CC)c1cc(C)nc2c(-c3sc(N4CCOCC4)nc3Cl)c(C)nn12 [Compound 1, 3-(4-Chloro-2-(morpholin-4-yl)thiazol-5-yl)-7-(1-ethylpropyl)-2,5-dimethylpyrazolo(1,5-a)pyrimidine]
tolerability [1]: generally well-tolerated
subjects in the normal range (ACTH) after treatment (ACTH): 40%
subjects with more than 25% reduction in ACTH (ACTH): 70%
subjects with reduction in ACTH (ACTH): 80%
subjects with more than 25% reduction in Androstenedione (Androstenedione): 60%
subjects within normal reference range (Androstenedione) after treatment (Androstenedione): 50%
subjects with reduction in Androstenedione (Androstenedione; at various doses): 100%
tolerability ([4]; Study 1, single oral doses up to 800 mg): well-tolerated
tolerability ([4]; Study 2, multiple doses up to 200 mg): generally well tolerated
subjects with more than 25% reduction in 17-OHP (17-OHP): 50%
subjects with reduction in 17-OHP (17-OHP): 80%
subjects within the guideline range (1200 ng/dL) of 17-OHP after treatment (17-OHP): 50%
